Measured values as given in paper PMC11259170, “Small-molecule probe for IBD risk variant GPR65 I231L alters cytokine signaling networks through positive allosteric modulation” (Science Advances, 2024).
Like-named read-outs stand apart in the source and are kept apart here.

How the values were obtained:
hGPR65 = molecular target: T1, hGPR65 (Homo sapiens, UniProt Q8IYL9); experiment: cAMP detection in HeLa expression cell line, hGPR65; assay type: cell-based; conditions: for Emax: HeLa, read-out: hGPR Max Activity %
T1 construct: expressed in transfected cells; host or cells: HeLa (ATCC CCL-2), lentiviral transduction, pLX317
T1 sequence (Q8IYL9 whole entry): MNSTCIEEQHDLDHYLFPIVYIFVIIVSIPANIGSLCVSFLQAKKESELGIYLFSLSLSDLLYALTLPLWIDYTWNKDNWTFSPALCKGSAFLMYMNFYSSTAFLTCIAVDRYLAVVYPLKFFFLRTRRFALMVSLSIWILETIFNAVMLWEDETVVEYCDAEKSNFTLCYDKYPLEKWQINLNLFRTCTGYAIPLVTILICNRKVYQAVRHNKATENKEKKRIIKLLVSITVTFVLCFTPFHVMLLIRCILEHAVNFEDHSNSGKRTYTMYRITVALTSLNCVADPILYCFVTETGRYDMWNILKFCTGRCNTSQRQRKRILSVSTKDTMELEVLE
Procedure: (§1) HeLa stable expression cell lines were produced by lentiviral transduction. Briefly, lentiviral plasmids for each GPCR with a C-terminal V5 Tag ([…]) were made in a pLX317 backbone using competent Escherichia coli (New England Biolabs, C3050H). Lenti-X 293 T (Takara, 632810) cells were transfected with the lentiviral plasmids to produce virus. Low-passage HeLa cells (American Type Culture Collection, CCL-2) were then transduced with lentivirus. After 48 hours, HeLa cells were cultured under selection with puromycin (3 μg/ml) and allowed to recover and expand before storing stocks in liquid nitrogen.
(§2) cAMP was measured in cells using the Lance Ultra cAMP Kit. HeLa cells were cultured under puromycin (3 μg/ml) selection. One day before the experiment, cells were seeded in T75 flasks and allowed to adhere overnight. On the day of the experiment, cells were washed twice with Dulbecco’s PBS and lifted using prewarmed 1× versene solution (Gibco, 15040066). Cells were counted in HBSS (Gibco, 14025092) and then resuspended in stimulation buffer prepared according to the manufacturer’s instructions and adjusted to pH 7.2 using 1 M sodium hydroxide. Cells were added to the plate at a density of 1500 cells per well in white opaque 384-well assay ready microplates containing 100 nl of 10 mM compound in DMSO. Cells were stimulated for 30 min at RT, then lysed and incubated with detection reagents for 1 hour in the dark at RT. Plates were read on BMG Labtech PHERAstar FSX (excitation, 337 nm; emission, 620 and 665 nm). Data analysis was performed using GraphPad Prism.

mGPR65 = molecular target: T2, mGPR65 (Mus musculus, UniProt Q61038); experiment: cAMP detection in HeLa expression cell line, mGPR65; assay type: cell-based; conditions: for Emax: HeLa, read-out: mGPR Max Activity %; for Emax / mGPR Max Activity: relative to 100uM forskolin (100%) and DMSO (0%)
T2 construct: expressed in transfected cells; host or cells: HeLa (ATCC CCL-2), lentiviral transduction, pLX317
T2 sequence (Q61038 whole entry): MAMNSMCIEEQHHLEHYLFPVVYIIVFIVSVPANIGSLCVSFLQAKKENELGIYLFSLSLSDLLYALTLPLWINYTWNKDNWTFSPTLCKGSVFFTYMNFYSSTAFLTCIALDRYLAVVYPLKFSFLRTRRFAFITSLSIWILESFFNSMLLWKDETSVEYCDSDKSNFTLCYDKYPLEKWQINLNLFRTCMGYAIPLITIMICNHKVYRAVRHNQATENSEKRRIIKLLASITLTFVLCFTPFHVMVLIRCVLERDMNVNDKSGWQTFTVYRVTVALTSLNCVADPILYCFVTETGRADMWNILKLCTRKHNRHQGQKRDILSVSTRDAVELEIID
Procedure: as §1, §2

[1] = 1st hGPR column pair, NA = no activity, read-out: hGPR EC50
[2] = 2nd hGPR column pair, NA = no activity, read-out: hGPR EC50
[3] = 1st hGPR column pair, relative to 100uM forskolin (100%) and DMSO (0%), NA = no activity
[4] = 2nd hGPR column pair, relative to 100uM forskolin (100%) and DMSO (0%), NA = no activity
[5] = 1st mGPR column pair, NA = no activity, read-out: mGPR EC50
[6] = 2nd mGPR column pair, NA = no activity, read-out: mGPR EC50
[7] = 2nd mGPR column pair, NA = no activity
[8] = 3rd mGPR column pair, NA = no activity, read-out: mGPR EC50
[9] = SAR cAMP assay, first EC50/Max pair, read-out: mGPR EC50
[10] = first pair, relative to 100uM forskolin (100%) and DMSO (0%)
[11] = SAR cAMP assay, first EC50/Max pair of hGPR columns, read-out: hGPR EC50

SMILES	EC50 (hGPR65; [1])	EC50 (hGPR65; [2])	Emax (hGPR65; [3])	Emax (hGPR65; [4])	EC50 (mGPR65; [5])	EC50 (mGPR65; [6])	Emax (mGPR65; [7])	Emax (mGPR65; NA = no activity)	further results
Cc1cnc(NC(=O)c2cnn3c(O)cc(-c4ccc(COC(C)C)cc4)nc23)nc1 [BRD5076]	2 µM	1.64 µM	72.4%	69.9%	1.14 µM	1.8 µM	56.3%	59.9%	
COCc1ccc(-c2cc(O)n3ncc(C(=O)Nc4ccc(OC)cc4)c3n2)cc1 [BRD5326]			83%	82.7%			55.6%	56.3%	EC50 (hGPR65; hGPR EC50 (uM), NA = no activity): 1.26 µM; EC50 (hGPR65; hGPR EC50, NA = no activity): 0.903 µM; cAMP production relative to BRD2813, hGPR65 (hGPR65; pH 7.2): little effect on cAMP production; EC50 (mGPR65; mGPR EC50 (uM), 2nd mGPR column pair, NA = no activity): 1.26 µM; EC50 (mGPR65; mGPR EC50 (uM), NA = no activity): 1.27 µM; cAMP production relative to BRD2813, mGPR65 (mGPR65; pH 7.2): slight improvement in mGPR65 activity
CCOCc1ccc(-c2cc(O)n3ncc(C(=O)Nc4ccc(C)cc4)c3n2)cc1 [BRD6745]	0.667 µM	0.413 µM	83.5%	81.6%	0.554 µM	0.511 µM	48.9%	52.9%	
COc1cccc(Cc2cc(O)n3ncc(C(=O)Nc4ccccc4)c3n2)c1 [BRD7897]					6.48 µM			~22.7%	
COCc1ccc(-c2cc(O)n3ncc(C(=O)NCc4ccc(C)cc4)c3n2)cc1 [BRD4305]					2.31 µM	1.44 µM	36.9%	67.8%	EC50 (mGPR65; [8]): 1.07 µM; mGPR Max Activity (mGPR65; NA = no activity): 60.85%
COc1cc(-c2cc(O)n3ncc(C(=O)Nc4ccc(C)cc4)c3n2)ccc1Cl [BRD5061]	0.942 µM	1.57 µM	72.2%	60.5%	0.794 µM		20.1%	23.4%	
Cc1ccc(NC(=O)c2cnn3c(O)cc(-c4ccc(Cl)cc4)nc23)cc1 [BRD2007]	0.409 µM	0.247 µM	79.1%	81.4%	0.644 µM	0.64 µM	22.7%	24.9%	
COCc1ccc(-c2cc(O)n3ncc(C(=O)Nc4ccc(C(=O)N(C)C)cc4)c3n2)cc1 [BRD1926]	34.1 µM		11%		21.5 µM			28.4%	
Cc1ccc(NC(=O)c2cnn3c(O)cc(-c4ccc(N5CCOCC5)nc4)nc23)cc1 [BRD5064]	5.02 µM	28.4 µM	56.7%	100%	3.41 µM	4.29 µM	33.9%	37.4%	
CC(C)OCc1ccc(-c2cc(O)n3ncc(C(=O)Nc4ccccn4)c3n2)cc1 [BRD5074]	7.02 µM	8.96 µM	84.1%	75.9%	9.32 µM			78%	
COCc1ccc(-c2cc(O)n3ncc(C(=O)Nc4ccc(C(=O)OC)cc4)c3n2)cc1 [BRD0592]	1.27 µM	1.25 µM	68.9%	68.2%	0.82 µM	0.563 µM	57%	64.1%	
Cc1ccc(NC(=O)c2cnn3c(O)cc(COc4ccccc4)nc23)cc1 [BRD6694]	8.03 µM	4.64 µM	20.7%	22.4%		19.7 µM	5.79%		
COCc1ccc(-c2cc(O)n3ncc(C(=O)Nc4ccc(F)cc4)c3n2)cc1 [BRD3674]	27.9 µM		43.3%			4.12 µM	7.69%		
Cc1ccc(NC(=O)c2cnn3c(O)cc(Cc4c[nH]c5ccccc45)nc23)cc1 [BRD2917]					18.9 µM			7.25%	
Cc1ccc(NC(=O)c2cnn3c(O)cc(-c4ccc(-c5ccc(C(C)C)cc5)cc4)nc23)cc1 [BRD7984]									Emax (mGPR65; first pair): 12.4%; EC50 (mGPR65; [9]): 0.11 µM
Cc1ccc(NC(=O)c2cnn3c(O)cc(CCc4c(C)noc4C)nc23)cc1 [BRD8568]	3.06 µM		3.77%						
COCc1ccc(-c2cc(O)n3nccc3n2)cc1 [BRD2453]	18.6 µM		11.7%						

SMILES	EC50 (hGPR65; [1])	EC50 (hGPR65; [2])	Emax (hGPR65; [3])	Emax (hGPR65; [4])	EC50 (mGPR65; [5])	EC50 (mGPR65; [6])	Emax (mGPR65; [7])	Emax (mGPR65; NA = no activity)	further results
Cc1ccc(NC(=O)c2cnn3c(O)cc(C(C)Cn4nccc4C)nc23)cc1 (centres unmarked) [BRD4822]					2.82 µM	4.33 µM	25.4%	42%	EC50 (mGPR65; [8]): 1.19 µM; mGPR Max Activity (mGPR65; NA = no activity): 35.73%
Cc1[nH]c2ccccc2c1Cc1cc(O)n2ncc(C(=O)Nc3ccccc3)c2n1 [BRD5828]					0.649 µM	0.785 µM	18.4%	25.8%	
Cc1ccc(NC(=O)c2cnn3c(O)cc(-c4cnc(N5CCOCC5)c(Cl)c4)nc23)cc1 [BRD5065]	2.39 µM	1.87 µM	49.7%	39.5%	0.513 µM	1.16 µM	51.8%	56.5%	
COc1ccc(-c2cc(O)n3ncc(C(=O)Nc4ccc(C)cc4)c3n2)cc1 [BRD9965]	0.734 µM	0.924 µM	73.8%	66%	24.2 µM	32.3 µM	-39%	-56.6%	
COc1cccc(Cc2cc(O)n3ncc(C(=O)Nc4ccc(C)cc4)c3n2)c1 [BRD5386]					2.01 µM	2.17 µM	16.4%	39.5%	EC50 (hGPR65; NA = no activity, read-out: hGPR EC50): 1.96 µM; hGPR Max Activity (hGPR65; relative to 100uM forskolin (100%) and DMSO (0%), NA = no activity): 4.575%; EC50 (mGPR65; [8]): 0.425 µM; mGPR Max Activity (mGPR65; NA = no activity): 21.71%
Cc1ccc(NC(=O)c2cnn3c(O)cc(CCc4c(C)n[nH]c4C)nc23)cc1 [BRD5908]					33 µM			22.1%	
Cc1ccc(NC(=O)c2cnn3c(O)cc(-c4ccc(-c5ccc(O)cc5)cc4)nc23)cc1 [BRD4475]									Emax (hGPR65; [10]): 22.6%; EC50 (hGPR65; [11]): 10.6 µM; Emax (mGPR65; first pair): 30.5%; EC50 (mGPR65; [9]): 1.66 µM
COCc1ccc(-c2cc(O)n3ncc(C(=O)N4CCS(=O)(=O)CC4)c3n2)cc1 [BRD3128]	11 µM		3.44%						
Cc1ccc(NC(=O)c2cnn3c(O)cc(-c4ccc(F)cc4)nc23)cc1 [BRD1827]	0.635 µM	0.963 µM	78%	77.5%	1.37 µM	1.29 µM	43.8%	43.6%	
CCN1CC(c2cc(O)n3ncc(C(=O)Nc4ccc(Cl)cc4)c3n2)CC1=O (centres unmarked) [BRD8856]					0.662 µM			10.9%	
COCc1ccc(-c2cc(OC)n3ncc(C(=O)Nc4ccc(C)cc4)c3n2)cc1 [BRD2344]					0.737 µM			4.13%	
COc1ccc(-c2ccn3ncc(C(=O)Nc4ccc(C)cc4)c3n2)cc1 [BRD6737]	0.0844 µM		7.95%						
COCc1ccc(-c2cc(O)n3ncc(C(=O)Nc4cccc(C)c4)c3n2)cc1 [BRD1946]	4.89 µM	4.97 µM	80.4%	76.2%	0.501 µM	1.51 µM	57.2%	63.6%	
Cc1ccc(NC(=O)c2cnn3c(O)cc(-c4ccc(-c5ccccc5O)cc4)nc23)cc1 [BRD1689]	3.57 µM	5.62 µM	79%	74.3%	1.58 µM	2.04 µM	45.5%	54%	
Cc1ccc(NC(=O)c2cnn3c(O)cc(-c4ccc(N5CCCN(C)CC5)cc4)nc23)cc1 [BRD8425]									Emax (mGPR65; first pair): 65.4%
Cc1ccc(NC(=O)c2cnn3c(O)cc(-c4ccc(Oc5ccccc5)cc4)nc23)cc1 [BRD3067]									Emax (hGPR65; [10]): 36.3%; EC50 (hGPR65; [11]): 11.1 µM
CCOC(=O)c1cnn2c(O)cc(C)nc12 [BRD9804]	77.6 µM		5.41%						
